Measured values published in the supplement of paper PMC10627819.

Legend:
B. subtilis 168 [1] = assay: fitness (endpoint OD595 vs no drug) (fraction); higher = more growth
Summary of the method: (§1)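 Volumes were 30 µl per well, or 55 µl for S. pneumoniae, in 384-well plates inoculated at OD595 0.01. Media were TSB, LB Lennox or CY at 37 °C, and OD595 was read every 30 min for 14 h with first-reading background subtraction. Fitness is the ratio of optical density at stationary-phase entry to the robust mean of no-drug controls. That ratio is capped at 1.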

S. aureus DSM 20231 [2] = assay: as above
Summary of the method: as §1

S. aureus Newman [3] = assay: as above
Summary of the method: as §1

S. pneumoniae D39V [4] = assay: as above
Summary of the method: as §1

B. subtilis 168 [5] = assay: Bliss interaction score (quartile over a dose matrix) (fitness difference); higher = more antagonism (negative = synergy)
Summary of the method: (§2)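 The Bliss score is observed minus expected fitness, where expected fitness is the product of the single-drug fitness values inferred from the combination data. Fitness is the OD595 at the onset of stationary phase over the plate's robust no-drug mean, capped at 1. Scores are summarised by quartiles over technical, biological and donor/recipient replicates.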

S. aureus DSM 20231 [6] = assay: as above
Summary of the method: as §2

S. aureus Newman [7] = assay: as above
Summary of the method: as §2

S. pneumoniae D39V [8] = assay: as above
Summary of the method: as §2
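Wherever Bliss interaction score (quartile over a dose matrix) is given: first quartile when negative (synergy) and third quartile when positive (antagonism).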

CO/N=C(\C(=O)N[C@@H]1C(=O)N2C(C(=O)O)=C(COC(C)=O)CS[C@H]12)c1csc(N)n1 [Cefotaxime] + COc1ccc(C[C@H](N)C(=O)N[C@H]2[C@@H](O)[C@H](n3cnc4c(N(C)C)ncnc43)O[C@@H]2CO)cc1 [Puromycin]
fitness, one replicate
Conditions	partner 0.39 µg/mL	partner 0.78 µg/mL	partner 1.56 µg/mL	partner 3.12 µg/mL	partner 6.24 µg/mL
B. subtilis 168 [1], first compound 0.00775 µg/mL	0.887	0.903	0.816	–	–
B. subtilis 168 [1], first compound 0.0155 µg/mL	0.71	0.726	0.668	–	–
B. subtilis 168 [1], first compound 0.031 µg/mL	0.558	0.574	0.616	–	–
S. aureus DSM 20231 [2], first compound 0.039 µg/mL	0.811	0.79	0.806	–	–
S. aureus DSM 20231 [2], first compound 0.078 µg/mL	–	–	–	0.895	0.653
S. aureus DSM 20231 [2], first compound 0.156 µg/mL	–	–	–	0.841	0.646
S. aureus DSM 20231 [2], first compound 0.312 µg/mL	–	–	–	0.808	0.417
S. aureus Newman [3], first compound 0.039 µg/mL	0.734	0.771	0.719	–	–
S. aureus Newman [3], first compound 0.625 µg/mL	0.0309	0.0612	0.0601	–	–
S. aureus Newman [3], first compound 1.25 µg/mL	0.0598	0.0843	0.0641	–	–
S. aureus Newman [3], first compound 2.5 µg/mL	0.0418	0.0601	0.0425	–	–

fitness
Conditions	partner 0.39 µg/mL	partner 0.78 µg/mL	partner 1 µg/mL	partner 1.56 µg/mL	partner 2 µg/mL	partner 4 µg/mL
B. subtilis 168 [1], first compound 0.5 µg/mL	0.267	0.284	–	0.312	–	–
B. subtilis 168 [1], first compound 1 µg/mL	0.144	0.147	–	0.169	–	–
B. subtilis 168 [1], first compound 2 µg/mL	0.113	0.125	–	0.147	–	–
S. aureus DSM 20231 [2], first compound 0.078 µg/mL	0.748	0.774	–	0.833	–	–
S. aureus DSM 20231 [2], first compound 0.156 µg/mL	0.72	0.781	–	0.796	–	–
S. aureus DSM 20231 [2], first compound 0.312 µg/mL	0.644	0.689	–	0.712	–	–
S. aureus Newman [3], first compound 0.078 µg/mL	0.739	0.729	–	0.782	–	–
S. aureus Newman [3], first compound 0.156 µg/mL	0.633	0.698	–	0.702	–	–
S. aureus Newman [3], first compound 0.312 µg/mL	0.408	0.456	–	0.437	–	–
S. pneumoniae D39V [4], first compound 0.0018 µg/mL	–	–	0.973	–	≥ 1	0.885
S. pneumoniae D39V [4], first compound 0.0035 µg/mL	–	–	0.931	–	0.975	0.766
S. pneumoniae D39V [4], first compound 0.007 µg/mL	–	–	0.93	–	0.919	0.662

Conditions	Bliss interaction score
B. subtilis 168 [5]	0.104
S. aureus DSM 20231 [6]	0.0471
S. aureus Newman [7]	0.0762
S. pneumoniae D39V [8]	0.11

CO/N=C(\C(=O)N[C@@H]1C(=O)N2C(C(=O)O)=C(COC(C)=O)CS[C@H]12)c1csc(N)n1 [Cefotaxime] + CN[C@@H]1[C@H](O)[C@H](NC)[C@H]2O[C@@]3(O)C(=O)C[C@@H](C)O[C@H]3O[C@@H]2[C@H]1O [Spectinomycin]
one replicate
Conditions	fitness
B. subtilis 168 [1], first compound 0.00775 µg/mL, partner 2 µg/mL	0.794
B. subtilis 168 [1], first compound 0.00775 µg/mL, partner 4 µg/mL	0.796
B. subtilis 168 [1], first compound 0.00775 µg/mL, partner 8 µg/mL	0.816
B. subtilis 168 [1], first compound 0.0155 µg/mL, partner 2 µg/mL	0.671
B. subtilis 168 [1], first compound 0.0155 µg/mL, partner 4 µg/mL	0.748
B. subtilis 168 [1], first compound 0.0155 µg/mL, partner 8 µg/mL	0.571
B. subtilis 168 [1], first compound 0.031 µg/mL, partner 2 µg/mL	0.521
B. subtilis 168 [1], first compound 0.031 µg/mL, partner 4 µg/mL	0.519
B. subtilis 168 [1], first compound 0.031 µg/mL, partner 8 µg/mL	0.258
S. aureus DSM 20231 [2], first compound 0.039 µg/mL, partner 4 µg/mL	0.72
S. aureus DSM 20231 [2], first compound 0.039 µg/mL, partner 8 µg/mL	0.747
S. aureus DSM 20231 [2], first compound 0.039 µg/mL, partner 16 µg/mL	0.707
S. aureus DSM 20231 [2], first compound 0.078 µg/mL, partner 32 µg/mL	0.597
S. aureus DSM 20231 [2], first compound 0.078 µg/mL, partner 64 µg/mL	0.0453
S. aureus DSM 20231 [2], first compound 0.156 µg/mL, partner 32 µg/mL	0.632
S. aureus DSM 20231 [2], first compound 0.156 µg/mL, partner 64 µg/mL	0.0727
S. aureus DSM 20231 [2], first compound 0.312 µg/mL, partner 32 µg/mL	0.583
S. aureus DSM 20231 [2], first compound 0.312 µg/mL, partner 64 µg/mL	0.0287
S. aureus Newman [3], first compound 0.078 µg/mL, partner 32 µg/mL	0.328
S. aureus Newman [3], first compound 0.078 µg/mL, partner 64 µg/mL	0.0751
S. aureus Newman [3], first compound 0.156 µg/mL, partner 32 µg/mL	0.0776
S. aureus Newman [3], first compound 0.156 µg/mL, partner 64 µg/mL	0.0848
S. aureus Newman [3], first compound 0.312 µg/mL, partner 32 µg/mL	0.0307
S. aureus Newman [3], first compound 0.312 µg/mL, partner 64 µg/mL	0.0805
S. aureus Newman [3], first compound 0.625 µg/mL, partner 4 µg/mL	0.0066
S. aureus Newman [3], first compound 0.625 µg/mL, partner 8 µg/mL	0.0296
S. aureus Newman [3], first compound 0.625 µg/mL, partner 16 µg/mL	0.021
S. aureus Newman [3], first compound 1.25 µg/mL, partner 4 µg/mL	0.0276
S. aureus Newman [3], first compound 1.25 µg/mL, partner 8 µg/mL	0.0141
S. aureus Newman [3], first compound 1.25 µg/mL, partner 16 µg/mL	0.0089
S. aureus Newman [3], first compound 2.5 µg/mL, partner 4 µg/mL	0.0608
S. aureus Newman [3], first compound 2.5 µg/mL, partner 8 µg/mL	0.0355
S. aureus Newman [3], first compound 2.5 µg/mL, partner 16 µg/mL	0.0355

fitness
Conditions	partner 2 µg/mL	partner 4 µg/mL	partner 8 µg/mL	partner 16 µg/mL
B. subtilis 168 [1], first compound 0.5 µg/mL	0.234	0.139	0.0989	–
B. subtilis 168 [1], first compound 1 µg/mL	0.11	0.0503	0.0323	–
B. subtilis 168 [1], first compound 2 µg/mL	0.0973	0.0906	0.091	–
S. aureus DSM 20231 [2], first compound 0.078 µg/mL	–	0.791	0.747	0.714
S. aureus DSM 20231 [2], first compound 0.156 µg/mL	–	0.704	0.754	0.711
S. aureus DSM 20231 [2], first compound 0.312 µg/mL	–	0.68	0.694	0.596
S. aureus Newman [3], first compound 0.078 µg/mL	–	0.697	0.716	0.686
S. aureus Newman [3], first compound 0.156 µg/mL	–	0.582	0.59	0.503
S. aureus Newman [3], first compound 0.312 µg/mL	–	0.272	0.201	0.0958
S. pneumoniae D39V [4], first compound 0.0018 µg/mL	–	0.985	0.944	0.9
S. pneumoniae D39V [4], first compound 0.0035 µg/mL	–	0.97	0.944	0.847
S. pneumoniae D39V [4], first compound 0.007 µg/mL	–	0.834	0.852	0.8

Conditions	Bliss interaction score
B. subtilis 168 [5]	-0.0623
S. aureus DSM 20231 [6]	0.0658
S. aureus Newman [7]	-0.0972
S. pneumoniae D39V [8]	0.108
